Measurements reported in US12391737B2, “Soluble NPY2 receptor agonists” (Boehringer Ingelheim International GmbH, priority 2020, dated 2025).
*1 amine or outer side, *2 acyl side, *3 side chain or, on linkers, in order; H or OH if unused. Where a SMILES comes first, the peptide text is derived from it. Side-chain parts run from the residue outwards. The star is where a group is joined. C18 diacid = O=C(O)CCCCCCCCCCCCCCCCC(=O)*; γGlu = O=C(O)[C@H](CCC(=O)[*:2])N[*:1]; Isovaleryl = CC(C)CC(=O)*; Ahx = NCCCCCC(=O)O

Legend:
Solubility determination = details: for Sol6: pH 6; for Sol7: pH 7
How it was run: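 Solubility is derived from the ratio of reversed-phase peak areas, filtered sample over a control dissolved at 1 mg/ml in 50% acetonitrile. Peptides are agitated for 2 hours at room temperature in 0.1 M sodium diphosphate at pH 6.4 or 7.0, aiming at 10 mg/ml.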

[1] = target: T1, Human Neuropeptide Y2 Receptor (Homo sapiens, UniProt P49146); assay: Radioligand binding competition assay (RLB); details: Table 3, 125I-PYY(1-36) competition; read-out: Ki
T1 construct: purchased CHEMICON HTS066M
T1 sequence (P49146 1-381): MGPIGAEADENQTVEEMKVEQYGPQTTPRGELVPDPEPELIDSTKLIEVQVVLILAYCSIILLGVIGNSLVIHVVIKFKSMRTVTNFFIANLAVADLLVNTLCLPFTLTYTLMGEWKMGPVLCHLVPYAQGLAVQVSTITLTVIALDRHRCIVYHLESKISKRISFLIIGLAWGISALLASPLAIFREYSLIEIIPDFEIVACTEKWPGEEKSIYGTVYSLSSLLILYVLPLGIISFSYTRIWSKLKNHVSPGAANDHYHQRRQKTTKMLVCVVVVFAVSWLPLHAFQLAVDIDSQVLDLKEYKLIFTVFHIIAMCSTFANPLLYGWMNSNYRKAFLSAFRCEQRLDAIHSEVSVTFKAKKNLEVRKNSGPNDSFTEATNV
How it was run: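 Receptor membranes, 0.5 μg/well; buffer 50 mM HEPES/5 mM MgCl2/1 mM CaCl2/0.2% ovalbumin, pH 7.4; 2 h RT, shaking. GF/C filtration, cold HEPES/500 mM NaCl wash, scintillation count. IC50 by nonlinear regression.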

Structure (SMILES)	Sol6 (Solubility determination) [mg/mL]	Sol7 (Solubility determination) [mg/mL]	Ki [1] [nM]
CC[C@H](C)[C@H](NC(=O)[C@H](CCC(=O)O)NC(=O)[C@H](CCC(=O)O)NC(=O)[C@@H]1CCCN1C(=O)[C@H](CO)NC(=O)[C@H](C)NC(=O)[C@H](C)NC(=O)[C@H](CCC(=O)O)NC(=O)[C@@H]1CCCN1C(=O)[C@@H]1CCCN1C(=O)[C@H](CCCCNC(=O)CCCCCNC(=O)CC[C@H](NC(=O)CCCCCCCCCCCCCCCCC(=O)O)C(=O)O)NC(=O)[C@H](CCC(=O)O)NC(=O)[C@@H]1CCCN1C(=O)[C@H](C)NC(=O)CC(C)C)C(=O)N[C@@H](CCC(N)=O)C(=O)N[C@@H](CCCNC(=N)N)C(=O)N[C@@H](Cc1ccc(O)cc1)C(=O)N[C@@H](Cc1ccc(O)cc1)C(=O)N[C@H](C(=O)N[C@@H](C)C(=O)N[C@@H](CC(C)C)C(=O)N[C@@H](CCCNC(=N)N)C(=O)N[C@@H](Cc1c[nH]cn1)C(=O)N[C@@H](Cc1ccc(O)cc1)C(=O)N[C@@H](Cc1ccc(O)cc1)C(=O)N[C@@H](CC(N)=O)C(=O)N[C@@H](Cc1c[nH]c2ccccc12)C(=O)N[C@@H](CC(C)C)C(=O)N[C@H](C(=O)N[C@@H](CCCNC(=N)N)C(=O)N[C@@H](CCC(N)=O)C(=O)N[C@@H](CCCNC(=N)N)C(=O)N[C@@H](Cc1ccc(O)cc1)C(N)=O)[C@@H](C)O)C(C)C [Compound 158, N{alpha-4}-(3-methylbutanoyl)-N{epsilon-7}-(6-[(4S)-4-carboxy-4-(17-carboxyheptadecanamido)butanamido]hexanoyl)-[4A,7K,9P,11A,17I,18Q,22V,23A,28Y,30W,31L]-hPYY(4-36)]	0.0	0.4	0.58
CC[C@H](C)[C@H](NC(=O)[C@H](Cc1ccc(O)cc1)NC(=O)[C@H](Cc1ccc(O)cc1)NC(=O)[C@H](CCCNC(=N)N)NC(=O)[C@H](CCC(N)=O)NC(=O)[C@H](CC(C)C)NC(=O)[C@H](CCC(=O)O)NC(=O)[C@H](CCC(=O)O)NC(=O)[C@@H]1CCCN1C(=O)[C@H](CCC(=O)O)NC(=O)[C@H](C)NC(=O)[C@H](CC(=O)O)NC(=O)[C@H](C)NC(=O)[C@H](CCC(=O)O)NC(=O)[C@@H]1CCCN1C(=O)[C@H](CCCCNC(=O)CCCCCNC(=O)CC[C@H](NC(=O)CCCCCCCCCCCCCCCCC(=O)O)C(=O)O)NC(=O)[C@H](CCC(=O)O)NC(=O)[C@@H]1CCCN1C(=O)[C@H](C)NC(=O)CC(C)C)C(=O)N[C@@H](CO)C(=O)N[C@@H](CC(C)C)C(=O)N[C@@H](CCCNC(=N)N)C(=O)N[C@@H](Cc1c[nH]cn1)C(=O)N[C@@H](Cc1ccc(O)cc1)C(=O)N[C@@H](Cc1ccc(O)cc1)C(=O)N[C@@H](CC(N)=O)C(=O)N[C@@H](Cc1c[nH]c2ccccc12)C(=O)N[C@@H](CC(C)C)C(=O)N[C@H](C(=O)N[C@@H](CCCNC(=N)N)C(=O)N[C@@H](CCC(N)=O)C(=O)N[C@@H](CCCNC(=N)N)C(=O)N[C@@H](Cc1ccc(O)cc1)C(N)=O)[C@@H](C)O [Compound 159, N{alpha-4}-(3-methylbutanoyl)-N{epsilon-7}-(6-[(4S)-4-carboxy-4-(17-carboxyheptadecanamido)butanamido]hexanoyl)-[4A,7K,9E,10A,13E,18Q,22I,28Y,30W,31L]-hPYY(4-36)] (Isovaleryl-APEK([Ahx-γGlu-C18 diacid])PEADAEPEELQRYYISLRHYYNWLTRQRY-NH2)	>10.0	10.0	2.75
CC(C)CC(=O)N[C@@H](C)C(=O)N1CCC[C@H]1C(=O)N[C@@H](C)C(=O)N[C@@H](CCCCNC(=O)CCCCCNC(=O)CC[C@H](NC(=O)CCCCCCCCCCCCCCCCC(=O)O)C(=O)O)C(=O)N1CCC[C@H]1C(=O)N[C@@H](CCC(=O)O)C(=O)N[C@@H](CCC(=O)O)C(=O)N[C@@H](C)C(=O)N[C@@H](C)C(=O)N[C@@H](CCC(=O)O)C(=O)N1CCC[C@H]1C(=O)N[C@@H](CCC(=O)O)C(=O)N[C@@H](CCC(=O)O)C(=O)N[C@@H](CC(C)C)C(=O)N[C@@H](CCC(N)=O)C(=O)N[C@@H](CCCNC(=N)N)C(=O)N[C@@H](Cc1ccc(O)cc1)C(=O)N[C@@H](Cc1ccc(O)cc1)C(=O)N[C@H](C(=O)N[C@@H](C)C(=O)N[C@@H](CC(C)C)C(=O)N[C@@H](CCCNC(=N)N)C(=O)N[C@@H](Cc1c[nH]cn1)C(=O)N[C@@H](Cc1ccc(O)cc1)C(=O)N[C@@H](Cc1ccc(O)cc1)C(=O)N[C@@H](CC(N)=O)C(=O)N[C@@H](Cc1c[nH]c2ccccc12)C(=O)N[C@@H](CC(C)C)C(=O)N[C@H](C(=O)N[C@@H](CCCNC(=N)N)C(=O)N[C@@H](CCC(N)=O)C(=O)N[C@@H](CCCNC(=N)N)C(=O)N[C@@H](Cc1ccc(O)cc1)C(N)=O)[C@@H](C)O)C(C)C [Compound 161, N{alpha-4}-(3-methylbutanoyl)-N{epsilon-7}-(6-[(4S)-4-carboxy-4-(17-carboxyheptadecanamido)butanamido]hexanoyl)-[4A,6A,7K,9E,11A,13E,18Q,22V,23A,28Y,30W,31L]-hPYY(4-36)]	0.2	>10.0	4
CC(C)CC(=O)N[C@@H](C)C(=O)N1CCC[C@H]1C(=O)N[C@@H](CCC(=O)O)C(=O)N[C@@H](CCCCNC(=O)CCCCCNC(=O)CC[C@H](NC(=O)CCCCCCCCCCCCCCCCC(=O)O)C(=O)O)C(=O)N1CCC[C@H]1C(=O)N[C@@H](CCC(=O)O)C(=O)N[C@@H](CCC(=O)O)C(=O)N[C@@H](CC(=O)O)C(=O)N[C@@H](C)C(=O)N[C@H](C(=O)N1CCC[C@H]1C(=O)N[C@@H](CCC(=O)O)C(=O)N[C@@H](CCC(=O)O)C(=O)N[C@@H](CCC(=O)O)C(=O)N[C@@H](CCC(N)=O)C(=O)N[C@@H](CCCNC(=N)N)C(=O)N[C@@H](Cc1ccc(O)cc1)C(=O)N[C@@H](Cc1ccc(O)cc1)C(=O)N[C@H](C(=O)N[C@@H](CO)C(=O)N[C@@H](CC(C)C)C(=O)N[C@@H](CCCNC(=N)N)C(=O)N[C@@H](Cc1c[nH]cn1)C(=O)N[C@@H](Cc1ccc(O)cc1)C(=O)N[C@@H](Cc1ccc(O)cc1)C(=O)N[C@@H](CC(N)=O)C(=O)N[C@@H](Cc1c[nH]c2ccccc12)C(=O)N[C@@H](CC(C)C)C(=O)N[C@H](C(=O)N[C@@H](CCCNC(=N)N)C(=O)N[C@@H](CCC(N)=O)C(=O)N[C@@H](CCCNC(=N)N)C(=O)N[C@@H](Cc1ccc(O)cc1)C(N)=O)[C@@H](C)O)C(C)C)[C@@H](C)O [Compound 162, N{alpha-4}-(3-methylbutanoyl)-N{epsilon-7}-(6-[(4S)-4-carboxy-4-(17-carboxyheptadecanamido)butanamido]hexanoyl)-[4A,7K,9E,13T,17E,18Q,22V,28Y,30W,31L]-hPYY(4-36)]	9.0	9.3	14.9
CC[C@H](C)[C@H](NC(=O)[C@H](CCC(=O)O)NC(=O)[C@H](CCC(=O)O)NC(=O)[C@@H]1CCCN1C(=O)[C@@H](NC(=O)[C@H](C)NC(=O)[C@H](CC(=O)O)NC(=O)[C@H](CCC(=O)O)NC(=O)[C@H](CCC(=O)O)NC(=O)[C@@H]1CCCN1C(=O)[C@H](CCCCNC(=O)CCCCCNC(=O)CC[C@H](NC(=O)CCCCCCCCCCCCCCCCC(=O)O)C(=O)O)NC(=O)[C@H](CCC(=O)O)NC(=O)[C@@H]1CCCN1C(=O)[C@H](C)NC(=O)CC(C)C)[C@@H](C)O)C(=O)N[C@@H](CCC(N)=O)C(=O)N[C@@H](CCCNC(=N)N)C(=O)N[C@@H](Cc1ccc(O)cc1)C(=O)N[C@@H](Cc1ccc(O)cc1)C(=O)N[C@@H](CCC(N)=O)C(=O)N[C@@H](CO)C(=O)N[C@@H](CC(C)C)C(=O)N[C@@H](CCCNC(=N)N)C(=O)N[C@@H](Cc1c[nH]cn1)C(=O)N[C@@H](Cc1ccc(O)cc1)C(=O)N[C@@H](Cc1ccc(O)cc1)C(=O)N[C@@H](CC(N)=O)C(=O)N[C@@H](Cc1c[nH]c2ccccc12)C(=O)N[C@@H](CC(C)C)C(=O)N[C@H](C(=O)N[C@@H](CCCNC(=N)N)C(=O)N[C@@H](CCC(N)=O)C(=O)N[C@@H](CCCNC(=N)N)C(=O)N[C@@H](Cc1ccc(O)cc1)C(N)=O)[C@@H](C)O [Compound 164, N{alpha-4}-(3-methylbutanoyl)-N{epsilon-7}-(6-[(4S)-4-carboxy-4-(17-carboxyheptadecanamido)butanamido]hexanoyl)-[4A,7K,9E,13T,17I,18Q,22Q,28Y,30W,31L]-hPYY(4-36)]	9.3	9.2	2.8
